Assay results as given in PubChem BioAssay AID330 (DTP/NCI, 2004).
Values joined by “and” are separate entries in the source; they are usually repeats but may differ in a detail not shown here. Identical values can stand only once. Inconclusive results and toxic doses are left out.

Test system: P388 leukemia ip, CD2F1 mice, survival T/C
Assay: NCI In Vivo Anticancer Drug Screen. Data for tumor model P388 Leukemia (intraperitoneal) in CD2F1 (CDF1) mice
Conditions: endpoint: median survival time, higher = longer survival
Method in brief: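 Mice carrying the transplanted tumor received test compound or vehicle. Survival was recorded in each group, and the value is the treated-group measurement divided by that of the vehicle-treated control group.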

[1] = dose: 50.0 mg/kg/injection, schedule: Q01DX009 (ip), vehicle: saline with Tween-80
[2] = dose: 100.0 mg/kg/injection, schedule: Q01DX009 (ip), vehicle: saline with Tween-80
[3] = dose: 200.0 mg/kg/injection, schedule: Q01DX009 (ip), vehicle: saline with Tween-80
[4] = dose: 50.0 mg/kg/injection, schedule: Q01DX005 (ip), vehicle: saline with Tween-80
[5] = dose: 100.0 mg/kg/injection, schedule: Q01DX005 (ip), vehicle: saline with Tween-80

COC1=C(OC)C(=O)C(CC=C(C)C)=C(C)C1=O
T/C (dose: 12.5 mg/kg/injection, schedule: Q01DX009 (ip), vehicle: saline + alcohol): 118 % of control
T/C (dose: 25.0 mg/kg/injection, schedule: Q01DX009 (ip), vehicle: saline + alcohol): 104 % of control and 110 % of control
T/C (dose: 50.0 mg/kg/injection, schedule: Q01DX009 (ip), vehicle: saline + alcohol): 103 % of control and 105 % of control
T/C (dose: 100.0 mg/kg/injection, schedule: Q01DX009 (ip), vehicle: saline + alcohol): 151 % of control

COc1ccc(/C=C/C(=O)C(C)(CN(C)C)CN(C)C)cc1
T/C (dose: 30.0 mg/kg/injection, schedule: Q01DX005 (ip), vehicle: saline): 123 % of control
T/C (dose: 120.0 mg/kg/injection, schedule: Q01DX005 (ip), vehicle: saline): 121 % of control

NCCCNCCCCNC(=O)C(O)NC(=O)CCCCCCN=C(N)N (stereo unspecified)
T/C (dose: 4.4 mg/kg/injection, schedule: Q01DX009 (ip), vehicle: other): 193 % of control and 195 % of control and 198 % of control
T/C (dose: 4.4 mg/kg/injection, schedule: Q01DX009 (ip), vehicle: saline): 193 % of control and 194 % of control and 200 % of control
T/C (dose: 4.5 mg/kg/injection, schedule: Q01DX009 (ip), vehicle: other): 193 % of control
T/C (dose: 4.5 mg/kg/injection, schedule: Q01DX009 (ip), vehicle: saline): 188 % of control and 196 % of control
T/C (dose: 6.25 mg/kg/injection, schedule: Q01DX005 (ip), vehicle: saline): 159 % of control
T/C (dose: 12.5 mg/kg/injection, schedule: Q01DX005 (ip), vehicle: saline): 165 % of control and 172 % of control
T/C (dose: 34.0 mg/kg/injection, schedule: Q01DX009 (ip), vehicle: saline): 205 % of control

C=CCC1CCCCC1=O (stereo unspecified) (tested in a mixture with another compound)
T/C [1]: 105 % of control
T/C [2]: 104 % of control
T/C [3]: 115 % of control

COc1ccc2c(c1)CCC1C2CCC2(C)C1CCC2(C)N(C)C (stereo unspecified)
T/C (dose: 6.25 mg/kg/injection, schedule: Q01DX005 (ip), vehicle: Klucel (hydroxypropylcellulose) (HPC)): 102 % of control
T/C (dose: 12.5 mg/kg/injection, schedule: Q01DX005 (ip), vehicle: Klucel (hydroxypropylcellulose) (HPC)): 102 % of control

C#CC(C)(C)Oc1ccc2c(=O)c(-c3ccc(OC)cc3)coc2c1
T/C [4]: 94 % of control
T/C [5]: 89 % of control

O=C(O)CCc1c(-c2ccccc2)c(-c2ccccc2)c2n1CCC2
T/C (dose: 100.0 mg/kg/injection, schedule: Q01DX001 (ip), vehicle: saline with Tween-80): 98 % of control
T/C (dose: 200.0 mg/kg/injection, schedule: Q01DX001 (ip), vehicle: saline with Tween-80): 100 % of control
T/C (dose: 400.0 mg/kg/injection, schedule: Q01DX001 (ip), vehicle: saline with Tween-80): 97 % of control

O=c1c(F)cn(-c2ccco2)c(=O)n1-c1ccco1
T/C (dose: 37.5 mg/kg/injection, schedule: Q04DX003 (ip), vehicle: saline + alcohol): 103 % of control
T/C (dose: 75.0 mg/kg/injection, schedule: Q04DX003 (ip), vehicle: saline + alcohol): 100 % of control
T/C (dose: 150.0 mg/kg/injection, schedule: Q04DX003 (ip), vehicle: saline + alcohol): 96 % of control

CCc1nc(-c2ccccc2)nc2c1nc(-c1ccccc1)n2Nc1ccccc1
T/C [4]: 90 % of control
T/C [5]: 96 % of control
T/C (dose: 200.0 mg/kg/injection, schedule: Q01DX005 (ip), vehicle: saline with Tween-80): 91 % of control

COc1ccc(C2NC(c3ccc(OC)cc3)C3CCCC2C3O)cc1 (stereo unspecified)
T/C (dose: 100.0 mg/kg/injection, schedule: Q04DX003 (ip), vehicle: saline): 100 % of control
T/C (dose: 200.0 mg/kg/injection, schedule: Q04DX003 (ip), vehicle: saline): 97 % of control
T/C (dose: 400.0 mg/kg/injection, schedule: Q04DX003 (ip), vehicle: saline): 94 % of control

O=C(O)C(Cc1ccc(O)cc1)NS(=O)(=O)Cc1ccccc1 (stereo unspecified)
T/C (dose: 100.0 mg/kg/injection, schedule: Q01DX009 (ip), vehicle: DMSO): 99 % of control
T/C (dose: 200.0 mg/kg/injection, schedule: Q01DX009 (ip), vehicle: DMSO): 92 % of control

C=CC(=O)OCCOCN(COCCOC(=O)C=C)c1nc(N(COCCOC(=O)C=C)COCCOC(=O)C=C)nc(N(COCCOC(=O)C=C)COCCOC(=O)C=C)n1
T/C [4]: 99 % of control
T/C [5]: 107 % of control

CC(C)CC(NC(c1ccccc1)(c1ccccc1)c1ccccc1)C(=O)O (stereo unspecified)
T/C (dose: 60.0 mg/kg/injection, schedule: Q01DX005 (ip), vehicle: Klucel (hydroxypropylcellulose) (HPC)): 103 % of control
T/C (dose: 120.0 mg/kg/injection, schedule: Q01DX005 (ip), vehicle: Klucel (hydroxypropylcellulose) (HPC)): 106 % of control

CC(C)(C)N=C(CCSc1ccccc1)Nc1ccccc1Cl
T/C [1]: 108 % of control
T/C [2]: 109 % of control
T/C [3]: 113 % of control
